Measurements taken from patent publication US7514582B2, “2′-substituted 1,1′-biphenyl-2-carboxamides, processes for their preparation, their use as medicaments, and pharmaceutical preparations comprising them” (Sanofi-Aventis Deutschland GmbH, priority 1999, dated 2009).

Molecular target: T1, Kv1.5 channels from humans (Homo sapiens, UniProt P22460)
T1 construct: expressed in transfected cells; host or cells: Xenopus laevis oocytes injected with in vitro synthesized RNA
Assay: Kv1.5 currents in Xenopus oocytes, two-microelectrode voltage clamp
Type: cell-based
Description: Kv1.5 channels from humans were expressed in Xenopus oocytes. For this, oocytes from Xenopus laevis were first isolated and defolliculated. RNA encoding Kv1.5 synthesized in vitro was then injected into these oocytes. After Kv1.5 protein expression for 1-7days, Kv1.5 currents were measured on the oocytes using the two-microelectrode voltage clamp technique. The Kv1.5 channels were in this case as a rule activated using voltage jumps to 0 mV and 40 mV lasting 500 ms. The bath was rinsed with a solution of the following composition: NaCl 96 mM, KCl 2 mM, CaCl2 1.8 mM, MgCl2 1 mM, HEPES 5 mM (titrated with NaOH to pH 7.4). These experiments were carried out at room temperature. The following were employed for data acquisition and analysis: Genedamp amplifier (Axon Instruments, Foster City, USA) and MacLab D/A converter and software (AD Instruments, Castle Hill, Australia). The substances according to the invention were tested by adding them in different concentrations to the bath solution. The effects of the substances were calculated as the percentage inhibition of the Kv1.5 control current which was obtained when no substance was added to the solution. The data were then extrapolated using the Hill equation in order to determine the inhibitory concentration IC50 for the respective substances.

T1 sequence (P22460 whole entry): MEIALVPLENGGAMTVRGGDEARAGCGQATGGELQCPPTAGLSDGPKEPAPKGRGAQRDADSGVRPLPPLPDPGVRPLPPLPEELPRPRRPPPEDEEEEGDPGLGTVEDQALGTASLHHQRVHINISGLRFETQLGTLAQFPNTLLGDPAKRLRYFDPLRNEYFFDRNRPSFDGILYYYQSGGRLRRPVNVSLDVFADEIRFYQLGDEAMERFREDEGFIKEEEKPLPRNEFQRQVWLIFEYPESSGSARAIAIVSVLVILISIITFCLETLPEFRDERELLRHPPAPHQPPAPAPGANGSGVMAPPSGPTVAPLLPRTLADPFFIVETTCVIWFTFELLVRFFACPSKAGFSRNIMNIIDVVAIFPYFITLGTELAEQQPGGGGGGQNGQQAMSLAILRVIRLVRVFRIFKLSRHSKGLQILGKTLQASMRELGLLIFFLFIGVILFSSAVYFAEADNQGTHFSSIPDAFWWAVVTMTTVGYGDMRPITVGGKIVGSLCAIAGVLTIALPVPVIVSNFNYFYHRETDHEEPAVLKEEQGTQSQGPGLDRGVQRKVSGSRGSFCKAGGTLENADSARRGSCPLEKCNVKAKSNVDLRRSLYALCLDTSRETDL

SMILES	IC50 [µM]
CCCCOC(=O)NCc1ccccc1-c1ccccc1C(=O)NCCC(C)C [2 d]	1.7
COc1ccc(C(=O)NCc2ccccc2-c2ccccc2C(=O)N[C@@H](CC(C)C)C(=O)NCC(F)(F)F)cc1 [13 f]	3.4
O=C(NCCc1ccccc1)c1ccccc1-c1ccccc1CNS(=O)(=O)c1ccccc1 [3 d]	1.7
COc1ccc(CC(=O)NCc2ccccc2-c2ccccc2C(=O)NCCc2ccncc2)cc1 [4 j]	7.1
O=C(NCCc1ccccn1)c1ccccc1-c1ccccc1CNS(=O)(=O)c1cccc(F)c1 [3 r]	1.5
O=C(NCc1ccccc1-c1ccccc1C(=O)NCCc1ccccc1)OCc1ccc(C(F)(F)F)cc1 [1 a]	6.1
CCCC(C)OC(=O)NCc1ccccc1-c1ccccc1C(=O)NCC1CC1 (stereo not drawn) [18 m]	2.1
COCCCNC(=O)c1ccccc1-c1ccccc1CNC(=O)OCc1ccccc1 [18 aa]	0.4
CN(CCc1ccccn1)C(=O)c1ccccc1-c1ccccc1CNC(=O)OCc1ccccc1 [6 d]	3.1
COc1ccc(CC(=O)NCc2ccccc2-c2ccccc2C(=O)Nc2ccc(OC)cc2)cc1 [4 g]	3.4
CC(C)C[C@H](NC(=O)c1ccccc1-c1ccccc1CNC(=O)OCc1ccccc1)C(=O)NCc1ccccc1 [13 c]	1.4
CN(C)c1ccc(CNC(=O)c2ccccc2-c2ccccc2CNC(=O)OCc2ccccc2)cc1 [8 x]	3.3
C[C@H](O)CNC(=O)c1ccccc1-c1ccccc1CNC(=O)O[C@@H](C)c1ccccc1 [18 n]	0.4
COC(=O)c1ccc(OC(=O)NCc2ccccc2-c2ccccc2C(=O)NCCC(C)C)cc1 [2 h]	2.5
O=C(NCc1ccccc1-c1ccccc1C(=O)NCc1ccc(F)cc1F)OCc1ccc(F)cc1 [1 s]	1.7
CC(C)(C)OC(=O)NCc1ccccc1-c1ccccc1C(=O)N[C@@H](CO)Cc1ccccc1 [8 m]	5.2
CC(C)CCNC(=O)c1cc(O)ccc1-c1ccccc1CNC(=O)OCc1ccccc1 [16 b]	5.2
CC(C)CCC(=O)NCc1ccccc1-c1ccccc1C(=O)NCC1CC1 [18 a]	7.2
C[C@H](CC(=O)NCc1ccccc1-c1ccccc1C(=O)NCCc1ccncc1)c1ccccc1 [18 h]	0.8

SMILES	IC50 [µM]
COC(=O)[C@H](Cc1ccccc1)NC(=O)c1ccccc1-c1ccccc1CNC(=O)OCc1ccccc1 [8 b]	0.9
C[C@H](OC(=O)NCc1ccccc1-c1ccccc1C(=O)NCCc1cccnc1)c1ccccc1 [18 s]	0.9
CC(C)C[C@H](NC(=O)c1ccccc1-c1ccccc1CNC(=O)CCc1ccccc1)C(=O)NCC(F)(F)F [13 g]	1.1
CN(Cc1ccccc1)C(=O)c1ccccc1-c1ccccc1CNC(=O)OCc1ccccc1 [6 a]	4.4
COc1ccc(CCC(=O)NCc2ccccc2-c2ccccc2C(=O)NCc2ccc(F)cc2F)cc1 [14 e]	0.8
CC(C)CCNC(=O)c1ccccc1-c1ccccc1CNC(=O)COc1ccccc1 [18 c]	4.2
O=C(NCc1ccccc1)NCc1ccccc1-c1ccccc1C(=O)NCCc1ccccn1 [5 c]	7.8
CC[C@@H](C)OC(=O)NCc1ccccc1-c1ccccc1C(=O)NCc1cccc(C)n1 [18 ac]	10
O=C(NCc1ccccc1-c1ccccc1C(=O)NCCc1ccccn1)Nc1ccc(C(F)(F)F)cc1 [11 m]	3.3
COc1ccc(CC(=O)NCc2ccccc2-c2ccccc2C(=O)NCCc2ccccn2)cc1 [4 d]	1.8
COc1ccc(CC(=O)NCc2ccccc2-c2ccccc2C(=O)NCCCOC(C)C)cc1 [18 y]	1.9
O=C(CCc1ccc(F)c(F)c1)NCc1ccccc1-c1ccccc1C(=O)NCc1ccc(F)cc1F [14 f]	2.5
COc1ccc(CC(=O)NCc2ccccc2-c2ccccc2C(=O)NCc2nc3ccccc3[nH]2)cc1 [18 af]	5.8
CC(C)CCNC(=O)c1ccccc1-c1ccccc1CNC(=O)OCc1ccccc1Cl [2 e]	3.4
C[C@H](CC(=O)NCc1ccccc1-c1ccccc1C(=O)NCC1CC1)c1ccccc1 [18 b]	0.4
CC(C)CCNC(=O)c1ccccc1-c1ccccc1[C@H](C)NC(=O)OCc1ccccc1 [17 d]	1.3
COc1ccc(CC(=O)NCc2ccccc2-c2ccccc2C(=O)NC(C)CC(C)C)cc1 (stereo not drawn) [18 ab]	1.1
C[C@H](OC(=O)NCc1ccccc1-c1ccccc1C(=O)NCCc1ccccn1)c1ccc(C(F)(F)F)cc1 [1 g]	0.4
O=C(NCc1ccccc1-c1ccccc1C(=O)NCc1ccc(F)cc1F)Oc1ccc(F)cc1 [2 j]	2.5

System: not given
Assay: not given

SMILES	melting point [°C]
O=C(NCc1ccccc1-c1ccccc1C(=O)NCCc1ccccn1)c1ccccc1 [Example 4 b, 2′-(Benzoylaminomethyl)biphenyl-2-carboxylic acid 2-(2-pyridyl)ethylamide]	135
CC(=O)c1cccc(S(=O)(=O)NCc2ccccc2-c2ccccc2C(=O)NCc2ccccc2)c1 [Example 3 h, 2′-(3-Acetylphenylsulfonylaminomethyl)biphenyl-2-carboxylic acid benzylamide]	182
CC(C)CCNC(=O)c1ccccc1-c1ccccc1CNS(=O)(=O)c1cccc(F)c1 [Example 3 n, 2′-(3-Fluorophenylsulfonylaminomethyl)biphenyl-2-carboxylic acid (3-methylbutyl)amide]	141
CC(C)CCNC(=O)c1ccccc1-c1ccccc1CNC(=O)c1ccccc1 [Example 4 a, 2′-(Benzoylaminomethyl)biphenyl-2-carboxylic acid (3-methylbutyl)amide]	147
O=C(NCCc1ccccc1)c1ccccc1-c1ccccc1CNS(=O)(=O)c1cccc(F)c1 [Example 3 e, 2′-(3-Fluorophenylsulfonylaminomethyl)biphenyl-2-carboxylic acid phenethylamide]	153
O=C(NCCc1ccccc1)c1ccccc1-c1ccccc1CNS(=O)(=O)c1ccccc1 [Example 3 d, 2′-(Phenylsulfonylaminomethyl)biphenyl-2-carboxylic acid phenethylamide]	154
O=C(NCc1ccccc1)c1ccccc1-c1ccccc1CNS(=O)(=O)c1cccc([N+](=O)[O-])c1 [Example 3 i, 2′-(3-Nitrophenylsulfonylaminomethyl)biphenyl-2-carboxylic acid benzylamide]	175
O=C(NCCc1ccccn1)c1ccccc1-c1ccccc1CNS(=O)(=O)c1ccc(F)cc1 [Example 3 q, 2′-(4-Fluorophenylsulfonylaminomethyl)biphenyl-2-carboxylic acid 2-(2-pyridyl)ethylamide]	130
CC(C)CCNC(=O)c1ccccc1-c1ccccc1CNC(=O)Nc1ccccc1 [Example 5 a, 2′-[(3-Phenylureido)methyl]biphenyl-2-carboxylic acid (3-methylbutyl)amide]	194
O=C(NCCc1ccccc1)c1ccccc1-c1ccccc1CNS(=O)(=O)c1cccc(C(F)(F)F)c1 [Example 3 a, 2′-(3-Trifluoromethylphenylsulfonylaminomethyl)biphenyl-2-carboxylic acid phenethylamide]	145
O=C(NCc1ccccc1)c1ccccc1-c1ccccc1CNS(=O)(=O)c1cccc(C(F)(F)F)c1 [Example 3 g, 2′-(3-Trifluoromethylphenylsulfonylaminomethyl)biphenyl-2-carboxylic acid benzylamide]	126
O=C(NCCc1ccccn1)c1ccccc1-c1ccccc1CNS(=O)(=O)c1ccccc1 [Example 3 p]	131
O=C(NCc1ccccc1-c1ccccc1C(=O)NCCc1ccccn1)Nc1ccccc1 [Example 5 b, 2′-[(3-Phenylureido)methyl]biphenyl-2-carboxylic acid 2-(2-pyridyl)ethylamide]	99
CC(C)CCNC(=O)c1ccccc1-c1ccccc1CNS(=O)(=O)c1ccc(F)cc1 [Example 3 m, 2′-(4-Fluorophenylsulfonylaminomethyl)biphenyl-2-carboxylic acid (3-methylbutyl)amide]	149
O=C(NCCc1ccccc1)c1ccccc1-c1ccccc1CNS(=O)(=O)c1cccc([N+](=O)[O-])c1 [Example 3 c, 2′-(3-Nitrophenylsulfonylaminomethyl)biphenyl-2-carboxylic acid phenethylamide]	145
O=C(NCc1ccccc1)c1ccccc1-c1ccccc1CNS(=O)(=O)c1cccc(F)c1 [Example 3 k, 2′-(3-Fluorophenylsulfonylaminomethyl)biphenyl-2-carboxylic acid benzylamide]	147
O=C(NCCc1ccccn1)c1ccccc1-c1ccccc1CNS(=O)(=O)c1cccc(F)c1 [Example 3 r, 2′-(3-Fluorophenylsulfonylaminomethyl)biphenyl-2-carboxylic acid 2-(2-pyridyl)ethylamide]	123
CC(C)CCNC(=O)c1ccccc1-c1ccccc1CNC(=O)OCc1ccccc1 [Example 2 b, 2′-(Benzyloxycarbonylaminomethyl)biphenyl-2-carboxylic acid (3-methylbutyl)amide]	112
CCc1ccc(S(=O)(=O)NCc2ccccc2-c2ccccc2C(=O)NCCc2ccccc2)cc1 [Example 3 f, 2′-(4-Ethylphenylsulfonylaminomethyl)biphenyl-2-carboxylic acid phenethylamide]	163
